Experiments:
[1] = Chemical stability of Amlexanox sodium salt solution (HPLC); type: physicochemical; conditions: 20 mg Amlexanox sodium salt in 2 mL Tris buffer pH 7.2; 0.05 molar equivalent of the listed compound; 72 hours, ambient light, access to air; HPLC peak area
Experimental: 20 mg of crystalline Amlexanox sodium salt was dissolved in a clear glass test tube in 2 mL of Tris buffer, pH 7.2. For each of the stabilizing compounds listed in the Table below, 0.05 molar equivalent of the compound was added to the solution, mixed until dissolved, and left under ambient light, and with access to the air. Concentration of Amlexanox in the sample was determined by HPLC right after preparation, and after 72 hours. The chemical stability of Amlexanox was evaluated by comparison of area under the peak of amlexanox from the two analyses.

CSML100 cells = experiment: S100A4-positive lung metastasis tumor model, alone or in combinations (Example 25); type: in vivo, mouse; conditions: CSML100 i.v. in A/J mice, mean±SEM
Experimental: Amlexanox solution for injections was prepared according to the Example 4. […] The animals were then divided randomly into 9 groups (n=9 except for control group): 1) intact control (n=13, saline); 2) Amlexanox (i.v. 100 mg/kg); 3) Amlexanox ([…]. 3 mg/kg); 5) Amlexanox ([…]. […] 10 mg/kg). […] The treatments were started on the day following the tumor cell implantation and continued for 10 consecutive days. […] The animal body weight was recorded as an index of treatment toxicity during the experiment. […] The data are expressed as mean±SEM for the number of metastatic sites on the lung surface.

B16F10/DX cells = experiment: B16 experimental metastasis model (Example 26); type: in vivo, mouse; conditions: B16F10/DX i.v. in C57BL/6 mice; TPT 2.0 mg/kg i.v. on day 1, 4, and 7; mean±SEM
Experimental: Amlexanox solution for injections was prepared according to the Example 4. B16F10/DX cell (2.0×10^5 cells per animal) were inoculated intravenously in female C57BL//6 mice (6-7 weeks old) and animals were then divided randomly into 4 groups (n=9 except for control group): 1) intact control (n=12, saline); 2) Amlexanox (100 mg/kg, daily p.o. administration); 3) TPT (2.0 mg/kg i.v. administration on day 1, 4, and 7); 5) Amlexanox (daily p.o. 100 mg/kg)+TPT (i.v. 2.0 mg/kg on day 1, 4, and 7). Intact control received oral administration with 10 ml/kg (volume/body weight) of saline, while Amlexanox was administrated orally and daily with a dose of 100 mg/kg in a volume of 10 ml/kg. The treatments were started from the day following the tumor cell implantation until the end of the protocol. However, TPT was administrated intravenously only on day 1, 4, and 7 after tumor implantation. The animal body weight was recorded as an index of treatment toxicity during the experiment.
The data in Table show metastasis formation in the lung in the mice implanted with B16F10/DX cells. The data are expressed as mean±SEM for the number of metastatic sites on the lung surface.

| Structure (SMILES) | Retained Amlexnox [1] [%] | also measured |
| --- | --- | --- |
| COC(=O)c1ccc(O)cc1 [Methyl 4-hydroxybenzoate] | 93.1 | – |
| COc1cccc2c1C(=O)c1c(O)c3c(c(O)c1C2=O)C[C@@](O)(C(=O)CO)C[C@@H]3O[C@H]1C[C@H](N)[C@H](O)[C@H](C)O1 [Dox, doxorubicin] | – | Lung Metastasis Number per Animal (CSML100 cells; Dox i.v. 3 mg/kg on day 1, 4, 7): 15.6 ± 2.66 |
| O=C1O[C@H]([C@@H](O)CO)C(O)=C1O [Ascorbic acid] | 99.5 | – |
| CC[C@@]1(O)C(=O)OCc2c1cc1n(c2=O)Cc2cc3c(CN(C)C)c(O)ccc3nc2-1 [TPT, topotecan] | – | Lung Metastasis Number per Animal (CSML100 cells; TPT i.v. 3 mg/kg on day 1, 4, 7): 6.20 ± 1.32; Lung Metastasis Number per Animal (B16F10/DX cells): 88.0 ± 8.79 |
| Cn1c(=O)c2c(ncn2C)n(C)c1=O [Caffeine] | 96.8 | – |

Continued, in another order:

| Retained Amlexnox [1] [%] | Structure (SMILES) | also measured |
| --- | --- | --- |
| 99.6 | Cc1occc(=O)c1O [Maltol] | – |
| 99.7 | CCCOC(=O)c1cc(O)c(O)c(O)c1 [Propyl galate] | – |
